# Laboratory results as given in ChEMBL document CHEMBL4004854, “Pyrrolo[3',2':6,7]cyclohepta[1,2-b]pyridines with potent photo-antiproliferative activity” (Eur J Med Chem, 2017).
# The source made the active and inactive calls. The calls are words filed in the database; no cut-off is given here.
# Key:
# [1] = Dark toxicity against human Jurkat cells assessed as reduction in cell viability after 72 hrs by MTT assay; format: cell-based
# MCF7 [2] = test: Phototoxicity against human MCF7 cells assessed as reduction in cell viability preincubated for 30 mins followed by 1.25 J/cm2 UV light irradiation measured after 48 hrs by MTT assay; format: functional, cell-based; conditions: MCF7, light or radiation study
# [3] = Dark toxicity against human K562 cells assessed as reduction in cell viability after 72 hrs by MTT assay; format: cell-based
# Jurkat [4] = test: Phototoxicity against human Jurkat cells assessed as reduction in cell viability preincubated for 30 mins followed by 1.25 J/cm2 UV light irradiation measured after 48 hrs by MTT assay; format: functional, cell-based; conditions: light or radiation study
# MCF7 [5] = test: Phototoxic index, ratio of CC50 for human MCF7 cells under dark condition to EC50 for human MCF7 cells under UV light irradiated condition
# [6] = Dark toxicity against human MCF7 cells assessed as reduction in cell viability after 72 hrs by MTT assay; format: cell-based
# K562 [7] = test: Phototoxicity against human K562 cells assessed as reduction in cell viability preincubated for 30 mins followed by 1.25 J/cm2 UV light irradiation measured after 48 hrs by MTT assay; format: functional, cell-based; conditions: K562, light or radiation study
# Jurkat [8] = test: Phototoxic index, ratio of CC50 for human Jurkat cells under dark condition to EC50 for human Jurkat cells under UV light irradiated condition
# K562 [9] = test: Phototoxic index, ratio of CC50 for human K562 cells under dark condition to EC50 for human K562 cells under UV light irradiated condition
# Jurkat [10] = test: Phototoxicity against human Jurkat cells assessed as reduction in cell viability at 0.1 uM preincubated for 30 mins followed by 2.5 J/cm2 UV light irradiation measured after 72 hrs in presence of hydroxyl radical scavenger DMTU by MTT assay; format: functional, cell-based
# Jurkat [11] = test: Phototoxicity against human Jurkat cells assessed as reduction in cell viability at 0.1 uM preincubated for 30 mins followed by 2.5 J/cm2 UV light irradiation measured after 72 hrs in presence of singlet oxygen scavenger sodium azide by MTT assay; format: functional, cell-based
# Escherichia coli [12] = test: Induction of Escherichia coli pBR322 DNA oxidative damage at 40 uM upon 7.5 J/cm2 UV-A light irradiation in presence of endonuclease-3 by ethidium bromide staining based electrophoresis
# MCF7 [13] = test: Induction of apoptosis in human MCF7 cells assessed as caspase-3 activation at 0.5 uM upon 2.5 J/cm2 UV light irradiation measured after 24 hrs by Western blot method; format: functional, cell-based
# Escherichia coli [14] = test: Induction of Escherichia coli pBR322 DNA oxidative damage at 40 uM upon 7.5 J/cm2 UV-A light irradiation in presence of Fpg by ethidium bromide staining based electrophoresis
# Escherichia coli [15] = test: Induction of Escherichia coli pBR322 DNA single strand break assessed as open circular form DNA bands at 10 to 40 uM upon 7.5 J/cm2 UV-A light irradiation by ethidium bromide staining based UV transillumination assay
# Escherichia coli [16] = test: Induction of Escherichia coli pBR322 DNA double strand break assessed as linear form DNA bands at 10 to 40 uM upon 7.5 J/cm2 UV-A light irradiation by ethidium bromide staining based UV transillumination assay
# [17] = Solubility of the compound in aqueous acetonitrile solution; format: physicochemical; conditions: buffer
# Jurkat [18] = test: Induction of lipid peroxidation in human Jurkat cells upon 2.5 J/cm2 UV light irradiation measured after 24 hrs by TBARS assay; format: functional, cell-based
# Jurkat [19] = test: Phototoxicity against human Jurkat cells assessed as reduction in cell viability at 0.1 uM preincubated for 30 mins followed by 2.5 J/cm2 UV light irradiation measured after 72 hrs in presence of vitamin E by MTT assay; format: functional, cell-based
# Jurkat [20] = test: Phototoxicity against human Jurkat cells assessed as reduction in cell viability at 0.1 uM preincubated for 30 mins followed by 2.5 J/cm2 UV light irradiation measured after 72 hrs in presence of antioxidant GSH by MTT assay; format: functional, cell-based
# MCF7 [21] = test: Induction of mitochondrial dysfunction in human MCF7 cells assessed as organelle fusion at 400 nM upon UV light irradiation measured after 6 hrs by mitotracker orange CMTM-ROS/LCS1 dye based confocal microscopic method; format: functional, cell-based
# MCF7 [22] = test: Induction of lysosomal activation in human MCF7 cells at 400 nM upon UV light irradiation measured up to 6 hrs by lysotracker green DND26 dye based confocal microscopic method; format: functional, cell-based
# MCF7 [23] = test: Induction of ROS generation in human MCF7 cells at 400 nM preincubated for 30 mins followed by UV light irradiation measured after 2 hrs by H2DCFDA staining based fluorescence assay relative to control; format: functional
# [24] = Induction of singlet oxygen photogeneration in aqueous acetonitrile solution of ADPA assessed as photobleaching of anthracene absorption upon 150 Watt mercury light irradiation at 400 nanometer measured up to 2 hrs
# [25] = Singlet oxygen sensitizing activity in aqueous acetonitrile solution irradiated with nanosecond laser flash photolysis assessed as lowest triplet-excited state by measuring long lived transient life time at 10^-4 M at 450 nanometer under argon saturated condition by spectroscopic method
structure (smiles),measurement,setting,value
Cn1ccc2c1-c1[nH]c(=O)c(S(=O)(=O)c3ccccc3)cc1CCC2,CC50 at 72 h,[1],> 20 µM
same,EC50,MCF7 [2],2.96 µM
same,CC50 at 72 h,[3],> 20 µM
same,EC50,Jurkat [4],> 20 µM
same,Ratio CC50/EC50,MCF7 [5],>6.77
same,CC50 at 72 h,[6],> 20 µM
same,EC50,K562 [7],> 20 µM
COc1nc2c(cc1S(=O)(=O)c1ccccc1)CCCc1ccn(C)c1-2,CC50 at 72 h,[1],> 20 µM
same,Ratio CC50/EC50,Jurkat [8],>10.2
same,EC50,MCF7 [2],2.14 µM
same,CC50 at 72 h,[3],> 20 µM
same,EC50,Jurkat [4],1.96 µM
same,Ratio CC50/EC50,MCF7 [5],>9.35
same,Ratio CC50/EC50,K562 [9],>3.47
same,CC50 at 72 h,[6],> 20 µM
same,EC50,K562 [7],5.76 µM
CCOC(=O)c1cc2c(n1C)-c1c(cc(S(=O)(=O)c3ccccc3)c(=O)n1C)CCC2,CC50 at 72 h,[1],> 20 µM
same,Ratio CC50/EC50,Jurkat [8],>17.39
same,EC50,MCF7 [2],4.76 µM
same,CC50 at 72 h,[3],> 20 µM
same,EC50,Jurkat [4],1.15 µM
same,Ratio CC50/EC50,MCF7 [5],>4.2
same,Ratio CC50/EC50,K562 [9],>5.67
same,CC50 at 72 h,[6],> 20 µM
same,EC50,K562 [7],3.53 µM
O=c1[nH]c2c(cc1S(=O)(=O)c1ccccc1)CCCc1ccn(Cc3ccccc3)c1-2,CC50 at 72 h,[1],> 20 µM
same,Ratio CC50/EC50,Jurkat [8],>5.57
same,EC50,MCF7 [2],2.72 µM
same,CC50 at 72 h,[3],> 20 µM
same,EC50,Jurkat [4],3.59 µM
same,Ratio CC50/EC50,MCF7 [5],>7.36
same,Ratio CC50/EC50,K562 [9],>2.35
same,CC50 at 72 h,[6],> 20 µM
same,EC50,K562 [7],8.5 µM
COc1ccc(Cn2ccc3c2-c2nc(OC)c(S(=O)(=O)c4ccccc4)cc2CCC3)cc1,CC50 at 72 h,[1],> 20 µM
same,Ratio CC50/EC50,Jurkat [8],>16
same,EC50,MCF7 [2],4.74 µM
same,CC50 at 72 h,[3],> 20 µM
same,EC50,Jurkat [4],1.25 µM
same,Ratio CC50/EC50,MCF7 [5],>4.22
same,Ratio CC50/EC50,K562 [9],>3.53
same,CC50 at 72 h,[6],> 20 µM
same,EC50,K562 [7],5.67 µM
CCOC(=O)c1cc2c(n1Cc1cccc(OC)c1)-c1[nH]c(=O)c(S(=O)(=O)c3ccccc3)cc1CCC2,CC50 at 72 h,[1],> 20 µM
same,Ratio CC50/EC50,Jurkat [8],>83.33
same,EC50,MCF7 [2],2.58 µM
same,CC50 at 72 h,[3],> 20 µM
same,EC50,Jurkat [4],0.24 µM
same,Ratio CC50/EC50,MCF7 [5],>7.77
same,Ratio CC50/EC50,K562 [9],>42.55
same,CC50 at 72 h,[6],> 20 µM
same,EC50,K562 [7],0.47 µM
CCOC(=O)c1cc2c(n1Cc1ccc(OC)cc1)-c1nc(OC)c(S(=O)(=O)c3ccccc3)cc1CCC2,CC50 at 72 h,[1],> 20 µM
same,Activity,Jurkat [10],Active
same,Ratio CC50/EC50,Jurkat [8],>80
same,EC50,MCF7 [2],1.01 µM
same,Activity,Jurkat [11],Active
same,Activity,Escherichia coli [12],Active
same,Activity,MCF7 [13],Active
same,Activity,Escherichia coli [14],Active
same,CC50 at 72 h,[3],> 20 µM
same,Activity,Escherichia coli [15],inactive
same,EC50,Jurkat [4],0.25 µM
same,Activity,Escherichia coli [16],inactive
same,Ratio CC50/EC50,MCF7 [5],>19.71
same,Ratio CC50/EC50,K562 [9],>21.05
same,CC50 at 72 h,[6],> 20 µM
same,solubility,[17],Insoluble
same,Activity,Jurkat [18],Dose-dependent effect
same,EC50,K562 [7],0.95 µM
same,Activity,Jurkat [19],inactive
same,Activity,Jurkat [20],Active
COc1ccc(Cn2ccc3c2-c2[nH]c(=O)c(S(=O)(=O)c4ccccc4)cc2CCC3)cc1,CC50 at 72 h,[1],> 20 µM
same,Ratio CC50/EC50,Jurkat [8],>21.51
same,EC50,MCF7 [2],4.23 µM
same,CC50 at 72 h,[3],> 20 µM
same,EC50,Jurkat [4],0.93 µM
same,Ratio CC50/EC50,MCF7 [5],>4.73
same,Ratio CC50/EC50,K562 [9],>7.87
same,CC50 at 72 h,[6],> 20 µM
same,EC50,K562 [7],2.54 µM
CCOC(=O)c1cc2c(n1C)-c1[nH]c(=O)c(S(=O)(=O)c3ccccc3)cc1CCC2,CC50 at 72 h,[1],> 20 µM
same,Ratio CC50/EC50,Jurkat [8],>6.06
same,EC50,MCF7 [2],1 µM
same,CC50 at 72 h,[3],> 20 µM
same,EC50,Jurkat [4],3.3 µM
same,Ratio CC50/EC50,MCF7 [5],>20
same,Ratio CC50/EC50,K562 [9],>1.87
same,CC50 at 72 h,[6],> 20 µM
same,EC50,K562 [7],10.7 µM
COc1ccccc1Cn1ccc2c1-c1[nH]c(=O)c(S(=O)(=O)c3ccccc3)cc1CCC2,CC50 at 72 h,[1],> 20 µM
same,Ratio CC50/EC50,Jurkat [8],>10.53
same,EC50,MCF7 [2],0.94 µM
same,CC50 at 72 h,[3],> 20 µM
same,EC50,Jurkat [4],1.9 µM
same,Ratio CC50/EC50,MCF7 [5],>21.23
same,Ratio CC50/EC50,K562 [9],>2.6
same,CC50 at 72 h,[6],> 20 µM
same,EC50,K562 [7],7.68 µM
CCOC(=O)c1cc2c(n1C)-c1nc(OC)c(S(=O)(=O)c3ccccc3)cc1CCC2,CC50 at 72 h,[1],> 20 µM
same,Ratio CC50/EC50,Jurkat [8],>80
same,EC50,MCF7 [2],1.7 µM
same,CC50 at 72 h,[3],> 20 µM
same,EC50,Jurkat [4],0.25 µM
same,Ratio CC50/EC50,MCF7 [5],>11.76
same,Ratio CC50/EC50,K562 [9],>31.75
same,CC50 at 72 h,[6],> 20 µM
same,EC50,K562 [7],0.63 µM
CCCCCCCCCCCCCC(=O)O[C@@H]1[C@@H](C)[C@@]2(O)[C@@H](C=C(CO)C[C@]3(O)C(=O)C(C)=C[C@@H]23)[C@@H]2C(C)(C)[C@]12OC(C)=O [PHORBOL MYRISTATE ACETATE],Activity,MCF7 [21],Active
same,Activity,MCF7 [22],Active
same,Activity,MCF7 [23],120%
CCOC(=O)c1cc2c(n1Cc1ccccc1OC)-c1[nH]c(=O)c(S(=O)(=O)c3ccccc3)cc1CCC2,CC50 at 72 h,[1],> 20 µM
same,Ratio CC50/EC50,Jurkat [8],>105.26
same,EC50,MCF7 [2],0.94 µM
same,CC50 at 72 h,[3],> 20 µM
same,EC50,Jurkat [4],0.19 µM
same,Ratio CC50/EC50,MCF7 [5],>21.36
same,Ratio CC50/EC50,K562 [9],>74.07
same,CC50 at 72 h,[6],> 20 µM
same,EC50,K562 [7],0.27 µM
COc1cccc(Cn2ccc3c2-c2[nH]c(=O)c(S(=O)(=O)c4ccccc4)cc2CCC3)c1,CC50 at 72 h,[1],> 20 µM
same,EC50,MCF7 [2],1.86 µM
same,Activity,[24],inactive
same,Time,[25],> 30 microsec
same,CC50 at 72 h,[3],> 20 µM
same,EC50,Jurkat [4],> 20 µM
same,Ratio CC50/EC50,MCF7 [5],>10.76
same,CC50 at 72 h,[6],> 20 µM
same,EC50,K562 [7],> 20 µM
CCOC(=O)c1cc2c(n1Cc1ccccc1)-c1[nH]c(=O)c(S(=O)(=O)c3ccccc3)cc1CCC2,CC50 at 72 h,[1],> 20 µM
same,Ratio CC50/EC50,Jurkat [8],>66.67
same,EC50,MCF7 [2],1.41 µM
same,CC50 at 72 h,[3],> 20 µM
same,EC50,Jurkat [4],0.3 µM
same,Ratio CC50/EC50,MCF7 [5],>14.22
same,Ratio CC50/EC50,K562 [9],>50
same,CC50 at 72 h,[6],> 20 µM
same,EC50,K562 [7],0.4 µM
